Experiments:
P. aeruginosa biofilms = test: Biofilm model: 24 hour exposure against 24 hour old single species biofilm, viable count; assay type: cell-based, Pseudomonas aeruginosa; settings: 30 μl per disc/biofilm, 37° C., 80 rpm shaking, FIG. 1
Method: (§1) Stationary phase cultures of S. aureus or P. aeruginosa grown in TSB were adjusted to 0.5 McFarland (c. 1.5×10^8 CFU/mL) and diluted a further 1:4 ratio (1 mL inoculum with 3 mL 0.1% Bactopeptone). A viable count was taken of each inoculum preparation. Sterile discs (6 mm diameter×1.0 mm) housed in 24 well culture plates were inoculated with 80 μL of culture. 0.2 ml of a test media was then added, the assay plates were parafilmed and incubated for 24 h at 37 degrees Celsius with 80 rpm shaking to allow biofilm formation. Unused wells were filled with PBS to increase humidity and prevent evaporation. After 24 hours incubation, cellulose discs/biofilms were rinsed with PBS to remove any […] vegetative cells and transferred to 150 μl of fresh media. For the honey (as the source of glucose) and Prontosan®, 30 μl was added to each test disc. […] Assuming the lowest concentration (100,[…]), 3.5 mg (350 U) was added to 3.5 ml of DPBS to give a 100 U/ml working stock which was filter sterilised. For the Pseudomonas experiment, the working stock was diluted in PBS to give a 10 U/ml solution-30 μl was added to a disc/biofilm. […] 30 μl of each was added to a disc/biofilm. The assay plates were parafilmed and incubated for 24 hours at 37° C. with 80 rpm shaking to allow biofilm disruption. Unused wells were filled with PBS to increase humidity and prevent evaporation. […]

S. aureus biofilms = test: as above; assay type: cell-based, Staphylococcus aureus; settings: 30 μl per disc/biofilm, 37° C., 80 rpm shaking, FIG. 2
Method: as §1, with “sterilised.” for “sterilised. For the Pseudomonas experiment, the working stock was diluted in PBS to give a 10 U/ml solution-30 μl was added to a disc/biofilm.”

glucose oxidase [glucose oxidase alone]
inhibition of 24 hour old single species biofilms of P. aeruginosa (P. aeruginosa biofilms): no inhibition | inhibition of 24 hour old single species biofilms of S. aureus (S. aureus biofilms): no inhibition

Reference: patent US10813982B2, “Composition comprising an oxidoreductase enzyme and its antibacterial use” (SYSTAGENIX WOUND MANAGEMENT, LIMITED, priority 2015, dated 2020)
